EC50, CD50 and melting point data for 21 compounds are collected here from patent publication US6987114B1, “Antiviral pyrimidinedione derivatives and process for the preparation thereof” (Samjin Pharmaceutical Co., Ltd, priority 1999, dated 2006).

In brackets after ≈: the same amount, converted by molar mass. Read-outs that look alike come from different tables or passages of the source.

In one data set the test system is HIV. Nature of the data set: microbe, parasite or virus in culture. It is filed as cell-based. Put shortly: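 MT-4 cells (2.5×10^5 cells/ml) infected with 1000 CCID50 HIV, added at once to compound dilutions, incubated 4 or 5 days at 37° C. Protection from virus-induced cytopathic effect read by MTT; cytotoxicity from MTT viability of mock-infected cells in parallel.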

Another data set deals with mock-infected MT-4 cells. Nature of the data set: Cytotoxicity based on viability of mock-infected host cells (MTT method). In kind it is cell-based. The settings on record: mock-infected MT-4 cells, MTT method, 4 or 5 days at 37° C. In a few lines:
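Mock-infected MT-4 cells at 2.5×10^5 cells/ml were exposed to various concentrations of test compound, run in parallel with HIV-infected (1000 CCID50) cultures. After 4 or 5 days at 37° C., host-cell viability was read by MTT.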
(Tetrazolium assays rely on reduction of a dye to a coloured formazan, in cell work by metabolically active cells.)

The mark [1] stands for this setting: Human immunodeficiency virus 1, MT4, HIV-infected MT-4 cells, MTT method, 4 or 5 days at 37° C., read-out: ED50 (the source's name).
The mark [2] stands for this setting: Human immunodeficiency virus 1, MT4, read-out: ED50.

For the compound `CCc1c(Oc2cc(C)cc(C)c2)n(Cn2nnc3ccccc32)c(=O)[nH]c1=O` [Example 141, 1-(1H-benzotriazol-1-ylmethyl)-5-ethyl-6-(3,5-dimethylphenoxy)-2,4-pyrimidinedione], the melting point (in general, the temperature, or range, at which the solid turns liquid) is 248 to 249 °C. Besides, the EC50 in the data set on HIV (setting [1]) was determined as 0.11 µg/mL (≈ 0.281 µM). The compound further displayed a CD50 in the data set on mock-infected MT-4 cells of 27.60 µg/mL.

Turning to `Cc1cc(C)cc(Oc2c(C(C)C)c(=O)[nH]c(=O)n2Cn2nnc3ccccc32)c1` [Example 142, 1-(1H-benzotriazol-1-ylmethyl)-5-isopropyl-6-(3,5-dimethylphenoxy)-2,4-pyrimidinedione], the melting point is 278 to 279 °C. For the same compound, in the data set on HIV (setting [1]), the EC50 came out at 0.044 µg/mL (≈ 0.109 µM). In addition, the CD50 in the data set on mock-infected MT-4 cells was greater than 100.00 µg/mL.

Compound `CCc1c(C(=O)c2cc(C)cc(C)c2)n(Cn2nnc3ccccc32)c(=O)[nH]c1=O` [Example 143, 1-(1H-benzotriazol-1-ylmethyl)-5-ethyl-6-(3,5-dimethylbenzoyl)-2,4-pyrimidinedione] had a melting point of 226 to 229 °C. Besides, in the data set with HIV (setting [1]), the EC50 was 0.026 µg/mL (≈ 0.0644 µM). The same compound came in with a CD50 in the data set on mock-infected MT-4 cells of 9.76 µg/mL.

For the compound `Cc1cc(C)cc(C(=O)c2c(C(C)C)c(=O)[nH]c(=O)n2Cn2nnc3ccccc32)c1` [Example 144, 1-(1H-benzotriazol-1-ylmethyl)-5-isopropyl-6-(3,5-dimethyl-benzoyl)-2,4-pyrimidinedione], the melting point was in the range of 246 to 247 °C. For the same compound, in the data set with HIV (setting [1]), the EC50 amounted to 0.03 µg/mL (≈ 0.0719 µM). Also, in the data set on mock-infected MT-4 cells, the CD50 worked out at 8.89 µg/mL.

In turn, `CCc1c(Sc2cc(C)cc(C)c2)n(Cc2nc3ccccc3o2)c(=O)[nH]c1=O` [Example 145, 1-(Benzoxazol-2-ylmethyl)-5-ethyl-6-(3,5-dimethylphenyl)thio-2,4-pyrimidinedione] displayed a melting point of 104 to 106 °C. Also, in the data set on HIV (setting [2]), the EC50 was found to be 3.04 µg/mL (≈ 7.46 µM). This compound registered a CD50 in the data set on mock-infected MT-4 cells greater than 100.00 µg/mL.

As for `Cc1cc(C)cc(Sc2c(C(C)C)c(=O)[nH]c(=O)n2Cc2nc3ccccc3o2)c1` [Example 146, 1-(Benzoxazol-2-ylmethyl)-5-isopropyl-6-(3,5-dimethylphenyl)thio-2,4-pyrimidinedione], the melting point lay within 107 to 109 °C. In the data set with HIV (setting [2]), the EC50 worked out at 1.02 µg/mL (≈ 2.42 µM). In the data set with mock-infected MT-4 cells, this compound showed a CD50 greater than 100.00 µg/mL.

For `CCc1c(Oc2cc(C)cc(C)c2)n(Cc2nc3ccccc3o2)c(=O)[nH]c1=O` [Example 147, 1-(Benzoxazol-2-ylmethyl)-5-ethyl-6-(3,5-dimethylphenoxy)-2,4-pyrimidinedione], the melting point is 121 to 123 °C. Further, the EC50 in the data set with HIV (setting [2]) amounted to 0.061 µg/mL (≈ 0.156 µM). In the data set with mock-infected MT-4 cells, this compound came in with a CD50 of 40.20 µg/mL.

Compound `Cc1cc(C)cc(Oc2c(C(C)C)c(=O)[nH]c(=O)n2Cc2nc3ccccc3o2)c1` [Example 148, 1-(Benzoxazol-2-ylmethyl)-5-isopropyl-6-(3,5-dimethylphenoxy)-2,4-pyrimidinedione] came in with a melting point of 200 to 202 °C. Further, in the data set on HIV (setting [2]), the EC50 is 0.01 µg/mL (≈ 0.0247 µM). Also, the CD50 with mock-infected MT-4 cells came to 9.00 µg/mL.

The compound `CCc1c(C(=O)c2cc(C)cc(C)c2)n(Cc2nc3ccccc3o2)c(=O)[nH]c1=O` [Example 149, 1-(Benzoxazol-2-ylmethyl)-5-ethyl-6-(3,5-dimethyl-benzoyl)-2,4-pyrimidinedione] came in with a melting point of 218 to 220 °C. Moreover, the EC50 in the data set on HIV (setting [2]) was 0.029 µg/mL (≈ 0.0719 µM). Also, in the data set on mock-infected MT-4 cells, the CD50 is 6.78 µg/mL.

The compound `COC(=O)c1ccoc1Cn1c(Sc2cc(C)cc(C)c2)c(C(C)C)c(=O)[nH]c1=O` [Example 152, 1-(3-Methoxycarbonyl-2-furanylmethyl)-5-isopropyl-6-(3,5-dimethylphenyl)thio-2,4-pyrimidinedione] returned a melting point of 135 to 137 °C. The EC50 with HIV (setting [1]) was 0.018 µg/mL (≈ 0.042 µM). For the same compound, the CD50 in the data set with mock-infected MT-4 cells was found to be 9.61 µg/mL.

On to `CCc1c(Oc2cc(C)cc(C)c2)n(Cc2occc2C(=O)OC)c(=O)[nH]c1=O` [Example 153, 1-(3-Methoxycarbonyl-2-furanylmethyl)-5-ethyl-6-(3,5-dimethylphenoxy)-2,4-pyrimidinedione], for which the melting point was in the range of 150 to 152 °C. For the same compound, the EC50 in the data set on HIV (setting [1]) was 0.278 µg/mL (≈ 0.698 µM). Further, in the data set with mock-infected MT-4 cells, the CD50 turned out to be 12.22 µg/mL.

Consider `COC(=O)c1ccoc1Cn1c(Oc2cc(C)cc(C)c2)c(C(C)C)c(=O)[nH]c1=O` [Example 154, 1-(3-Methoxycarbonyl-2-furanylmethyl)-5-isopropyl-6-(3,5-dimethylphenoxy)-2,4-pyrimidinedione], for which the melting point was in the range of 157 to 159 °C. Besides, the EC50 in the data set with HIV (setting [1]) amounted to 0.074 µg/mL (≈ 0.179 µM). Further, the CD50 in the data set with mock-infected MT-4 cells was determined as 10.11 µg/mL.

`CCc1c(C(=O)c2cc(C)cc(C)c2)n(Cc2occc2C(=O)OC)c(=O)[nH]c1=O` [Example 155, 1-(3-Methoxycarbonyl-2-furanylmethyl)-5-ethyl-6-(3,5-dimethyl-benzoyl)-2,4-pyrimidinedione] gave a melting point of 204 to 206 °C. Further, the EC50 in the data set with HIV (setting [1]) was 0.017 µg/mL (≈ 0.0414 µM). Also, the CD50 in the data set with mock-infected MT-4 cells came to 13.45 µg/mL.

Consider `COC(=O)c1ccoc1Cn1c(C(=O)c2cc(C)cc(C)c2)c(C(C)C)c(=O)[nH]c1=O` [Example 156, 1-(3-Methoxycarbonyl-2-furanylmethyl)-5-isopropyl-6-(3,5-dimethyl-benzoyl)-2,4-pyrimidinedione], for which the melting point lay in the range of 180 to 183 °C. In addition, the EC50 with HIV (setting [1]) stood at 0.014 µg/mL (≈ 0.033 µM). The same compound showed a CD50 in the data set on mock-infected MT-4 cells of 10.92 µg/mL.

As to `CCc1c(Oc2cc(C)cc(C)c2)n(CC(C)=O)c(=O)[nH]c1=O` [Example 157, 1-(Acetonyl)-5-ethyl-6-(3,5-dimethylphenoxy)-2,4-pyrimidinedione], the melting point was in the range of 162 to 165 °C. Further, the EC50 in the data set with HIV (setting [2]) was 0.0119 µg/mL (≈ 0.0376 µM). Further, the CD50 with mock-infected MT-4 cells came out at 3.6 µg/mL.

In the case of `CC(=O)Cn1c(Oc2cc(C)cc(C)c2)c(C(C)C)c(=O)[nH]c1=O` [Example 158, 1-(Acetonyl)-5-isopropyl-6-(3,5-dimethylphenoxy)-2,4-pyrimidinedione], the melting point fell in the range of 181 to 183 °C. Further, the EC50 with HIV (setting [2]) turned out to be 0.0043 µg/mL (≈ 0.013 µM). In addition, in the data set on mock-infected MT-4 cells, the CD50 is greater than 100.00 µg/mL.

In turn, `CCc1c(C(=O)c2cc(C)cc(C)c2)n(CC(C)=O)c(=O)[nH]c1=O` [Example 159, 1-(Acetonyl)-5-ethyl-6-(3,5-dimethylbenzoyl)-2,4-pyrimidinedione] had a melting point of 186 to 189 °C. Also, the EC50 with HIV (setting [2]) was 0.0018 µg/mL (≈ 0.00548 µM). This compound gave a CD50 in the data set on mock-infected MT-4 cells of 11.8 µg/mL.

Compound `CC(=O)Cn1c(C(=O)c2cc(C)cc(C)c2)c(C(C)C)c(=O)[nH]c1=O` [Example 160, 1-(Acetonyl)-5-isopropyl-6-(3,5-dimethylbenzoyl)-2,4-pyrimidinedione] yielded a melting point of 181 to 183 °C. In the data set with HIV (setting [2]), the EC50 was determined as 0.0005 µg/mL (≈ 0.00146 µM). Moreover, the CD50 in the data set on mock-infected MT-4 cells came out at 14.0 µg/mL.

`CCC(=O)Cn1c(Oc2cc(C)cc(C)c2)c(CC)c(=O)[nH]c1=O` [Example 161, 1-(2-Butanon-1-yl)-5-ethyl-6-(3,5-dimethylphenoxy)-2,4-pyrimidinedione] gave a melting point of 116 to 118 °C. For the same compound, the EC50 with HIV (setting [2]) was 0.018 µg/mL (≈ 0.0545 µM). This compound returned a CD50 with mock-infected MT-4 cells of 48.0 µg/mL.

In turn, `CCC(=O)Cn1c(Oc2cc(C)cc(C)c2)c(C(C)C)c(=O)[nH]c1=O` [Example 162, 1-(2-Butanon-1-yl)-5-isopropyl-6-(3,5-dimethylphenoxy)-2,4-pyrimidinedione] yielded a melting point of 135 to 138 °C. Moreover, the EC50 in the data set with HIV (setting [2]) amounted to 0.0159 µg/mL (≈ 0.0462 µM). The compound also displayed a CD50 in the data set with mock-infected MT-4 cells of 41.40 µg/mL.

Compound `CCC(=O)Cn1c(C(=O)c2cc(C)cc(C)c2)c(C(C)C)c(=O)[nH]c1=O` [Example 164, 1-(2-Butanon-1-yl)-5-isopropyl-6-(3,5-dimethylbenzoyl)-2,4-pyrimidinedione] displayed a melting point of 174 to 176 °C. In addition, in the data set on HIV (setting [2]), the EC50 came out at 0.0026 µg/mL (≈ 0.00729 µM). In the data set on mock-infected MT-4 cells, this compound returned a CD50 of 20.58 µg/mL.
